Columns and labels:
[1] = test system: NK cells; experiment: NK cell counts (immunophenotyping) in MAD cohorts; type: in vivo, human; conditions: day 1 to day 10, MAD
Procedure: Immunophenotyping was conducted on NK Cells in part B only.

[2] = molecular target: T1, JAK3 (Homo sapiens, UniProt P52333); experiment: Protein-adjusted JAK3 IC50 (reference value, data on file); type: cell-based
T1 sequence (P52333 1-1124): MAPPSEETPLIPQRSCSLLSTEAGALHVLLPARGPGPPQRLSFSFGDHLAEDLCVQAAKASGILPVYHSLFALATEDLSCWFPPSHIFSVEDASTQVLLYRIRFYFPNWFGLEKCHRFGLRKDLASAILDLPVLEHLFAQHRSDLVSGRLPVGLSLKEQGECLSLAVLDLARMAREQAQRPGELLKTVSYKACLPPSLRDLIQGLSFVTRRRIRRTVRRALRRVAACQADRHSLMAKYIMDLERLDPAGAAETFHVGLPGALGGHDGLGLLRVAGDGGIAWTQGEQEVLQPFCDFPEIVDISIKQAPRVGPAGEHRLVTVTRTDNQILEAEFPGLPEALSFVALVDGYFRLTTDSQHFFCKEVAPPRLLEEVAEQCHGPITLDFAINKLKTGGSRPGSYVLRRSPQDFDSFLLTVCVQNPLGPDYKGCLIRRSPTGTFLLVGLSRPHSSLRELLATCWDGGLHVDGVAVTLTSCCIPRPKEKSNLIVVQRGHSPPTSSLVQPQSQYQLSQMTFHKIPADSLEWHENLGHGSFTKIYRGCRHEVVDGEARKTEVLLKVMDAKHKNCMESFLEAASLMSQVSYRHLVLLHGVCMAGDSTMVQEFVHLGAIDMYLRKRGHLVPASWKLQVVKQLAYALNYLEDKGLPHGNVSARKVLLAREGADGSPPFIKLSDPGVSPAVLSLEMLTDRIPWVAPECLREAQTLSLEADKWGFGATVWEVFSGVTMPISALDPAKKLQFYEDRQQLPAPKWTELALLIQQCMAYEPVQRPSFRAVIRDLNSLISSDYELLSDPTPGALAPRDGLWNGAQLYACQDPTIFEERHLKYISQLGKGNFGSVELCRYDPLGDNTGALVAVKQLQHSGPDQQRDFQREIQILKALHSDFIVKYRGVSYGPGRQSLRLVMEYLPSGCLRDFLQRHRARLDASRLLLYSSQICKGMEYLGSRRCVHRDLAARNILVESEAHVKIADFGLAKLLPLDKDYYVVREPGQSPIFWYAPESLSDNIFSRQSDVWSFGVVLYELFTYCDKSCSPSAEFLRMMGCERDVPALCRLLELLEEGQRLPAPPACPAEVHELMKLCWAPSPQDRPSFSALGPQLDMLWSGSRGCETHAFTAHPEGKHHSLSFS
Source text: In FIG. 11B, gray box indicates day 1 of MAD portion. Symbols and error bars represent the arithmetic mean plus SD, and reference IC50 values shown are from data on file. BID, twice daily; HuPBMC, human peripheral blood mononuclear cell; IC50, concentration producing 50% of maximal inhibition.

[3] = Phase 1 multiple ascending dose (MAD, Part B) safety and tolerability in healthy subjects; type: in vivo, human; conditions: for Most frequent TEAEs: Acne / Most frequent TEAEs: Dizziness / Most frequent TEAEs: Headache / Most frequent TEAEs: Pain in extremity / Subjects with TEAEs: Any TEAE / Subjects with TEAEs: Moderate or severe TEAE / Subjects with TEAEs: Serious TEAE / Subjects with TEAEs: TEAE leading to discontinuation / Total number of TEAEs: MAD, n = 6
Source text: This clinical study was the first in human study of a compound of formula (I). The purpose of this study was to assess the safety, tolerability and pharmacokinetics (PK) of the compound of formula (I) through single ascending dose administration (Part A) and multiple dose administrations (Part B) in healthy subjects.
The number and severity of treatment emergent adverse events (TEAE5) following single (Part A) or multiple (Parts B) oral doses of the compound of formula (I) and matching placebo, and changes in safety laboratory assessments, vital signs, and ECGs.
24 healthy, adult male and female subjects were enrolled in Part B. […] cohorts (B1 to B3) of 8 healthy subjects (6 active and 2 placebo) were evaluated.
In each cohort, healthy subjects meeting eligibility criteria were sequentially randomized in a 3:1 ratio to receive either the compound of formula (I) or placebo BID, each morning and evening (approximately 12 hours following the morning dose) for 10 consecutive days of dosing, except for Day 10 where subjects were only received a morning dose. Subjects were dosed in an upright (i.e., seated or standing) position and remained upright for 5 minutes after dosing before a posture change for other study procedures, if applicable. Subjects fasted overnight for at least 9.5 hours prior to morning dose on Day 1 and Day 10. Subjects continued the fast for at least 4 hours post morning dose on these days. For all other morning doses and for all evening doses (i.e., Day 1 evening and Days 2 to 9), subjects were required to fast for at least 2 hours prior and for at least 2 hours following the dose.
Safety was determined by evaluating physical examinations, vital signs, safety 12-lead electrocardiograms (ECGs) monitoring, clinical laboratory tests, and adverse events (AEs). For procedures scheduled to be performed at common times, collection of PK samples was collected as close as possible to the designated time. The cardiodynamic recordings via ECG extractions from the Holter monitor were conducted as close as possible prior to the corresponding PK sampling. Vital signs, followed by safety ECGs, were be taken before the PK sampling (or before the cardiodynamic sampling if scheduled at the same time), unless PK samples were late as a result in which case vital signs were taken following the PK sampling.
Safety analyses were performed using the Safety analysis set. Safety variables include vital signs, adverse events, clinical laboratory results (hematology, chemistry, coagulation, and urinalysis), and ECG parameters, such as Friderica's corrected QT interval (QTcF), PR interval, QT interval, QRS interval, and heart rate, from standard safety digital ECGs. Vital signs were summarized in terms of observed values and changes from baseline.

[4] = molecular target: T1, JAK3; experiment: Co-crystal structure with human JAK3; type: binding
Source text: Such covalent binding to JAK3 could be beneficial by providing an extended target engagement which may translate in better efficacy.

[5] = test system: oxazolone-induced colitis model in mice; experiment: Oxazolone-induced colitis model in mice; type: in vivo
Source text: Oxazolone-induced colitis is an experimental model that has a histological resemblance to human ulcerative colitis.

changes in absolute or relative NK cell counts [1]: no apparent changes
IC50 [2]: 369 nM
binding nature to JAK3 (co-crystal structure, covalent bond with Cys909) [4]: irreversible binding
SMILES: CN(C)C/C=C/C(=O)N1CC(COc2cc(-c3ccc(O)cc3)cc3[nH]ncc23)C1 [compound of formula (I)]
serious AEs ([3]; MAD cohorts): No serious AEs
severity of reported treatment-emergent AEs ([3]; MAD cohorts): mild
changes from predose baseline in laboratory assessments (lipid, coagulation, hematology), vital signs or ECGs ([3]; MAD cohorts, any time point postdose): No clinically significant changes
Most frequent TEAEs: Acne ([3]; 100 mg BID oral for 10 days): 1 (17)
Most frequent TEAEs: Dizziness ([3]; 100 mg BID oral for 10 days): 2 (33)
Most frequent TEAEs: Headache ([3]; 100 mg BID oral for 10 days): 2 (33)
Most frequent TEAEs: Pain in extremity ([3]; 100 mg BID oral for 10 days): 1 (17)
Subjects with TEAEs: Any TEAE ([3]; 100 mg BID oral for 10 days): 5 (83)
Subjects with TEAEs: Moderate or severe TEAE ([3]; 100 mg BID oral for 10 days): 0
Subjects with TEAEs: Serious TEAE ([3]; 100 mg BID oral for 10 days): 0
Subjects with TEAEs: TEAE leading to discontinuation ([3]; 100 mg BID oral for 10 days): 0
Total number of TEAEs ([3]; 100 mg BID oral for 10 days): 11
Most frequent TEAEs: Acne ([3]; 300 mg BID oral for 10 days): 0
Most frequent TEAEs: Dizziness ([3]; 300 mg BID oral for 10 days): 0
Most frequent TEAEs: Headache ([3]; 300 mg BID oral for 10 days): 0
Most frequent TEAEs: Pain in extremity ([3]; 300 mg BID oral for 10 days): 0
Subjects with TEAEs: Any TEAE ([3]; 300 mg BID oral for 10 days): 1 (17)
Subjects with TEAEs: Moderate or severe TEAE ([3]; 300 mg BID oral for 10 days): 0
Subjects with TEAEs: Serious TEAE ([3]; 300 mg BID oral for 10 days): 0
Subjects with TEAEs: TEAE leading to discontinuation ([3]; 300 mg BID oral for 10 days): 0
Total number of TEAEs ([3]; 300 mg BID oral for 10 days): 9
Most frequent TEAEs: Acne ([3]; 1000 mg BID oral for 10 days): 0
Most frequent TEAEs: Dizziness ([3]; 1000 mg BID oral for 10 days): 0
Most frequent TEAEs: Headache ([3]; 1000 mg BID oral for 10 days): 0
Most frequent TEAEs: Pain in extremity ([3]; 1000 mg BID oral for 10 days): 0
Subjects with TEAEs: Any TEAE ([3]; 1000 mg BID oral for 10 days): 0
Subjects with TEAEs: Moderate or severe TEAE ([3]; 1000 mg BID oral for 10 days): 0
Subjects with TEAEs: Serious TEAE ([3]; 1000 mg BID oral for 10 days): 0
Subjects with TEAEs: TEAE leading to discontinuation ([3]; 1000 mg BID oral for 10 days): 0
Total number of TEAEs ([3]; 1000 mg BID oral for 10 days): 0
tolerability ([3]; multiple doses up to 1000 mg BID for 10 days): generally well-tolerated
activity in the oxazolone-induced colitis model [5]: demonstrated activity

From US11471442B2, “Administration of gut-selective JAK3 inhibitor” (THERAVANCE BIOPHARMA R&D IP, LLC, priority 2020, dated 2022)
